Laboratory results taken from US20090028969A1, “Compostion for treating skin” (priority 2006, published 2009).

Experiments:
[1] = tested on: normal human epidermal melanocytes (line M99-1H6); assay: Intracellular melanin content of UVB-stimulated human cultured melanocytes; type: cell-based; settings: With UV; for PA (pigmenting activity): vs irradiated control
Experimental: In order to evaluate the activity on pigmentation, an in vitro experiment, based on the measurement of intracellular melanin content of human cultured melanocytes exposed (UVB-stimulated) or not exposed to radiation, in the absence and in the presence of the test compound, was conducted. […] Normal human epidermal melanocytes from newborn foreskin were cultured at […] in MGM “serum free” medium (Melanocyte Growth Medium, PromoCell®) supplemented with antibiotics. Cultures were maintained at 37° C. in a humidified 5% CO2 atmosphere. Subcultures of human melanocytes were propaged in MGM medium and used just before reaching confluence. Cells were counted and diluted to the desired concentration in culture medium without calf serum. The cultured melanocytes were placed in 24-well plates at a density of 60×10^3 cells per well. Two plates were seeded with cells: one for the measurement of melanin content (“Melanin plate”) and the other for the measurement of cell densities (“Neutral Red” plate). […] Cells were incubated at 37° C., in a 95% air-5% CO2 atmosphere for eight days. During this period cells were exposed to UVB radiation at day 1 (D1), day 2 (D2), day 3 (D3), day 4 (D4), day 7 (D7) and day 8 (D8). UVB radiation exposure was carried out with a parallel bank of T[…]/12 tubes emitting a continuous spectrum between 280 and 320 nm with a peak emission at 312 nm. A UVB dose of 40 mJ/cm^2 was applied at each exposure. Sham-control cells were subjected to the same procedure, but without UV exposure and without treatment. Before exposure, cell monolayers were washed with pre-warmed Phosphate Buffer Solution (PBS) and then exposed to UVB in the presence of PBS (without test product). Immediately after irradiation PBS was replaced by fresh test medium. After treatment the culture medium was removed. The cells were washed with PBS at pH 6.8 and melanin was extracted by adding NaOH-DMSO solution. Melanin extracts were heated at 80° C. for 2 hours. After cooling, aliquots were added in 96-well microplates. Optical density (OD 450 nm) was recorded at 450 nm with a microplate reader (Dynatech MR 5000). Synthetic melanin standards (Sigma) were incubated at the same conditions. This standard curve allowed the transformation of OD 450 nm into the Melanin Unit Equivalent in each well. Melanin content was measured by absorbance at […] in control and treated melanin extracts. Results were expressed as μg melanin per well determined from the standard curve: DO(450 nm)=f([melanin]). Intracellular melanin content was measured on human normal melanocytes (line […]-1H6) after the formerly described treatment and UVB exposures of cultures. […] The melanin content (μg of melanin per well) was corrected by the cellular density of each respective culture (number of cells per well) in order to express the “Pigmentation level” of cells (expressed in pg melanin/cell). The pigmenting activity (PA) of the test product was calculated according the formula: [formula]

mushroom tyrosinase = settings: enzymatic mushroom tyrosinase assay, literature; cited from earlier work

O=c1cc(-c2ccc(O)c(O)c2)oc2cc(O)cc(O)c12 [Luteolin, 3′,4′,5,7-Tetrahydroxyflavone]
Melanin content ([1]; 1 μg/ml): 57.56 +/− 0.0 pg melanin/well | PA (pigmenting activity) ([1]; 1 μg/ml): −22% (p < 0.01) | Melanin content ([1]; 5 μg/ml): 55.57 +/− 0.0 pg melanin/well | PA (pigmenting activity) ([1]; 5 μg/ml): −25% (p < 0.01) | Melanin content ([1]; 10 μg/ml): 54.84 +/− 1.56 pg melanin/well | PA (pigmenting activity) ([1]; 10 μg/ml): −26% (p < 0.01)

C[C@@H]1O[C@@H](O[C@@H]2[C@@H](O)[C@H](OCCc3ccc(O)c(O)c3)O[C@H](CO)[C@H]2OC(=O)/C=C/c2ccc(O)c(O)c2)[C@H](O)[C@H](O)[C@H]1O [Verbascoside, 2-(3′,4′-dihydroxyphenyl)ethyl-O-α-1-rhamnopyranosyl-(1→3)-β-d-(4-O-caffeoyl)-glucopyranoside]
PA (pigmenting activity) ([1]; 10 μg/ml): −20% (p < 0.01) | Melanin content ([1]; 50 μg/ml): 58.32 +/− 4.44 pg melanin/well | PA (pigmenting activity) ([1]; 50 μg/ml): −21% (p < 0.01) | Melanin content ([1]; 100 μg/ml): 57.80 +/− 1.63 pg melanin/well | PA (pigmenting activity) ([1]; 100 μg/ml): −22% (p < 0.01)

OCC1O[C@@H](Oc2ccc(O)cc2)C(O)C(O)[C@@H]1O (stereo partly drawn) [arbutin, hydroquinone β-d-glucopyranoside]
anti-tyrosinase IC50 (mushroom tyrosinase): about 100 μg/ml
